Experimental data as given in patent US8946197B2, “Transglutaminase TG2 inhibitors, pharmaceutical compositions, and methods of use thereof” (CHDI Foundation, Inc., priority 2009, dated 2015).
Where “and” joins values, the source holds several entries; their conditions need not be identical. Equal values may be shown once.

The compounds below were run against T1, human TG2 (Homo sapiens, UniProt P21980) (assay: fluorescent screening assay for human TG2). Details: 20 nM TG2, 8 μM N,N-dimethylated Casein, 16 μM KxD, pH 7.4, 37° C.
T1 sequence (P21980 1-687): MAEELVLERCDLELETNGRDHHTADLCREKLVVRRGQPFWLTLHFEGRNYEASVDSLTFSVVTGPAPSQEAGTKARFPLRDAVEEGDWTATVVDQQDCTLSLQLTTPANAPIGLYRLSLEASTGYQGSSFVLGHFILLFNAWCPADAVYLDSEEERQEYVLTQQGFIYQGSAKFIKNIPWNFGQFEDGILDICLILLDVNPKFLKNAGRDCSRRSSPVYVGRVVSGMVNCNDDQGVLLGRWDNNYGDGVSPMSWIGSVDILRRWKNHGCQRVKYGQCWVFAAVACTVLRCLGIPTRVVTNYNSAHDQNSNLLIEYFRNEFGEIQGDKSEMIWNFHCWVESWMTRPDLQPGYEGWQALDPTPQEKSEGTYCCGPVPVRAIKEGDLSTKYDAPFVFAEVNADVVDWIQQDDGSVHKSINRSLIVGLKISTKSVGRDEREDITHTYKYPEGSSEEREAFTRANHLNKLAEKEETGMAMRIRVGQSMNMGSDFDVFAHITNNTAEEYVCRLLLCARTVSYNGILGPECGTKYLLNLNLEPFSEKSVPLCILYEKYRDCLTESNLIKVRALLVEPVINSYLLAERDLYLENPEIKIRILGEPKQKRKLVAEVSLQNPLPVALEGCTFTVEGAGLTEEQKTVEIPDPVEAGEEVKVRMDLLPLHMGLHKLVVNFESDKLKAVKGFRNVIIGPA
Assay type: biochemical
Summary of the method: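 20 nM TG2 with 8 μM N,N-dimethylated casein and 16 μM K×D in 25 mM Hepes pH 7.4, 250 mM NaCl, 2 mM MgCl2, 0.5 mM CaCl2, 0.2 mM DTT, 0.05% Pluronic F-127 at 37° C. Fluorescence (ex 350, em 535 nm) was read every 3 min for up to 2 h. Initial linear velocity served as activity.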

| SMILES | IC50 |
| --- | --- |
| C=CC(=O)N(C)c1ccc(S(=O)(=O)N2CCN(C(=O)OC(C)(C)C)CC2)cc1 [4-[4-(Acryloyl-methyl-amino)-benzenesulfonyl]-piperazine-1-carboxylic acid tert-butyl ester] | 1 to 25 µM |
| C=CC(=O)Nc1ccc(S(=O)(=O)N(C)Cc2cccc(CN3CCCC3)c2)cc1 [N-{4-[Methyl-(3-pyrrolidin-1-ylmethyl-benzyl)-sulfamoyl]-phenyl}-acrylamide] | 1 to 25 µM |
| C=CC(=O)Nc1ccc(S(=O)(=O)N2CCN(C(=O)C34CC5CC(CC(C5)C3)C4)CC2)c(F)c1 [N-{4-[4-(Adamantane-1-carbonyl)-piperazine-1-sulfonyl]-3-fluoro-phenyl}-acrylamide] | 0.1 to 1 µM and < 0.1 µM |
| C/C=C/C(=O)Nc1ccc(S(=O)(=O)N2CCN(C(=O)OC(C)(C)C)CC2)cc1 [(E)-tert-butyl 4-(4-but-2-enamidophenylsulfonyl)piperazine-1-carboxylate] | 1 to 25 µM |

The next lines start with the values.

| IC50 | SMILES |
| --- | --- |
| 0.1 to 1 µM and < 0.1 µM | C=CC(=O)Nc1ccc(S(=O)(=O)N2CCN(c3nccs3)CC2)cc1 [N-[4-(4-Thiazol-2-yl-piperazine-1-sulfonyl)-phenyl]-acrylamide] |
| < 0.1 µM and 0.1 to 1 µM | C=CC(=O)Nc1ccc(S(=O)(=O)N2CCN(c3nc4ccccc4o3)CC2)cc1 [N-[4-(4-Benzooxazol-2-yl-piperazine-1-sulfonyl)-phenyl]-acrylamide] |
| 0.1 to 1 µM and < 0.1 µM | C=CC(=O)Nc1ccc(S(=O)(=O)N2CCN(C(=O)Oc3ccccc3)CC2)cc1 [4-(4-Acryloylamino-benzenesulfonyl)-piperazine-1-carboxylic acid phenyl ester] |
